The text below walks through data of patent US20160002204A1 (Board of Regents, The University of Texas System, priority 2014, published 2016).

Assay [1] has as its target T1, GLS1 (purified recombinant human GAC) (Homo sapiens, UniProt O94925).
T1 sequence (O94925 55-598 isoform O94925-3 limits assumed): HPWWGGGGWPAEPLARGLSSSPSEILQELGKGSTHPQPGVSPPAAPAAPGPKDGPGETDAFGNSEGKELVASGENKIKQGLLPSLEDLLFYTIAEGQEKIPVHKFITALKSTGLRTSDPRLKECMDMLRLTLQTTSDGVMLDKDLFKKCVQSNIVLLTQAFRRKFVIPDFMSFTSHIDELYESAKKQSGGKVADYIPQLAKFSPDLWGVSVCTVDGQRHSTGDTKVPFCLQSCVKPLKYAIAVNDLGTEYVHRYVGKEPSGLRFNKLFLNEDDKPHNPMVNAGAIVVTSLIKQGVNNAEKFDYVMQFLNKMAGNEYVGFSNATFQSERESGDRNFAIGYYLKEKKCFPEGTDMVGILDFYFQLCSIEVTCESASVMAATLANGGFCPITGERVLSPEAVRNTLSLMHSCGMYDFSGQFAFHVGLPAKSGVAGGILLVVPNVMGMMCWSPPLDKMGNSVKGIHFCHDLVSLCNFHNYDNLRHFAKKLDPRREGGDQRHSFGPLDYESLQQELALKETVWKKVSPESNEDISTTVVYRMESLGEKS
The experiment in a line: GLS1 enzymatic activity assay (dual-coupled, Amplex UltraRed/resorufin). Format: biochemical. The procedure, abridged:
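GAC activity measured by coupling glutamate to glutamate oxidase and HRP, generating resorufin from Amplex UltraRed. Enzyme (2 nM) preincubated with 50 mM potassium phosphate 10 min at room temperature, then inhibitor 10 min; 1 mM glutamine substrate, 1% DMSO. Fluorescence 530/590 nm, kinetic or 20-min endpoint; IC50 from four-parameter logistic fit.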

In another assay the test system is A549 cells. The assay can be described thus: A549 proliferation (viability) assay, Cell Titer Fluor, 72 hours. In kind it is cell-based. The note with it: Homo sapiens. An outline of the steps:
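Fluorescence read-out (Cell Titer Fluor, 30 min at 37 °C after reagent) after 72 h compound exposure of A549 cells; EC50 by four-parameter logistic curve fit. Cells: 1000/well, RPMI 1640 + 10% dialyzed FBS, 0.5% DMSO final.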

Broadly, the IC50 is the concentration needed to halve the response being measured. One may read the EC50 as the concentration at which the effect is half-maximal. Regarding `Cc1ccc(CNC(=O)c2cn(CC(F)CCn3ccc(NC(=O)OC(C)(C)C)c(F)c3=O)nn2)cn1` (stereo not drawn) [Example 298, tert-butyl N-{3-fluoro-1-[3-fluoro-4-(4-{[(6-methylpyridin-3-yl)methyl]carbamoyl}-1H-1,2,3-triazol-1-yl)butyl]-2-oxo-1,2-dihydropyridin-4-yl}carbamate], in assay [1], the IC50 lay within 0.1 to 0.5 µM. This compound yielded an EC50 in the assay on A549 cells of 0.5 to 5 µM.

Turning to `CNC1CCC(CC(=O)Nc2ccn(CCCCn3cc(C(=O)NCc4cccc(OC(F)(F)F)c4)nn3)c(=O)c2)CC1` (stereo not drawn) [Example 209, 1-[4-(4-{2-[4-(methylamino)cyclohexyl]acetamido}-2-oxo-1,2-dihydropyridin-1-yl)butyl]-N-{[3-(trifluoromethoxy)phenyl]methyl}-1H-1,2,3-triazole-4-carboxamide], the IC50 in assay [1] was under 0.1 µM. The compound also came in with an EC50 with A549 cells of 0.5 to 5 µM.

As to `O=C(Cc1ccccc1)Nc1ccc(CCCCn2ccc(NC(=O)Cc3ccccc3)nc2=O)nn1` [Example 20, N-(2-oxo-1-(4-(6-(2-phenylacetamido)pyridazin-3-yl)butyl)-1,2-dihydropyrimidin-4-yl)-2-phenylacetamide], the half-maximal inhibitory concentration (IC50) in assay [1] was under 0.1 µM. In the assay on A549 cells, this compound had an EC50 of under 0.1 µM.

As for `Nc1ccn(CCCCc2ccc(NC(=O)Cc3cccc(OC(F)(F)F)c3)nn2)c(=O)n1` [Example 77, N-{6-[4-(4-amino-2-oxo-1,2-dihydropyrimidin-1-yl)butyl]pyridazin-3-yl}-2-[3-(trifluoromethoxy)phenyl]acetamide], the IC50 in assay [1] lay within 0.5 to 5 µM. In addition, in the assay with A549 cells, the EC50 is over 5 µM.

As to `O=C(Cc1ccccc1)Nc1ccn(CCCCn2cc(C(=O)NCc3cccc(OC(F)(F)F)c3)nn2)c(=O)c1F` [Example 173, 1-{4-[3-fluoro-2-oxo-4-(2-phenylacetamido)-1,2-dihydropyridin-1-yl]butyl}-N-{[3-(trifluoromethoxy)phenyl]methyl}-1H-1,2,3-triazole-4-carboxamide], the IC50 in assay [1] was under 0.1 µM. In the assay with A549 cells, the EC50 was under 0.1 µM.

With `COc1ccc(CNC(=O)c2ccn(CCCCn3cc(C(=O)NCc4cccc(OC(F)(F)F)c4)nn3)c(=O)c2)c(OC)c1` [Example 61, N-[(2,4-dimethoxyphenyl)methyl]-2-oxo-1-{4-[4-({[3-(trifluoro-methoxy)phenyl]methyl}carbamoyl)-1H-1,2,3-triazol-1-yl]butyl}-1,2-dihydropyridine-4-carboxamide], the IC50 in assay [1] lay within 0.1 to 0.5 µM. The EC50 with A549 cells fell in the range of 0.5 to 5 µM.

Take `O=C(CC1CCCCO1)Nc1ccn(CCC(F)Cn2cc(C(=O)NCc3cccc(OC(F)(F)F)c3)nn2)c(=O)c1` (stereo not drawn) [Example 187, 1-(2-fluoro-4-{4-[2-(oxan-2-yl)acetamido]-2-oxo-1,2-dihydropyridin-1-yl}butyl)-N-{[3-(trifluoromethoxy)phenyl]methyl}-1H-1,2,3-triazole-4-carboxamide]: the concentration for half-maximal inhibition (IC50) in assay [1] is under 0.1 µM. This compound also displayed an EC50 with A549 cells of under 0.1 µM.

With `CC(C)(C)OC(=O)c1cn(CC(F)CCn2ccc(CO)cc2=O)nn1` (stereo not drawn) [Example 408, tert-butyl 1-{2-fluoro-4-[4-(hydroxymethyl)-2-oxo-1,2-dihydropyridin-1-yl]butyl}-1H-1,2,3-triazole-4-carboxylate], the IC50 in assay [1] was over 5 µM. The 50% effective concentration (EC50) with A549 cells is over 5 µM.

Take `Cc1ccc(CNC(=O)c2cn(CCCCn3ccc(NC(=O)CC4CCCCC4)cc3=O)nn2)cn1` [Example 145, 1-{4-[4-(2-cyclohexylacetamido)-2-oxo-1,2-dihydropyridin-1-yl]butyl}-N-[(6-methylpyridin-3-yl)methyl]-1H-1,2,3-triazole-4-carboxamide]: the IC50 in assay [1] is under 0.1 µM. The same compound had an EC50 in the assay on A549 cells of 0.1 to 0.5 µM.

Turning to `CC(C)(C)OC(=O)NCc1cccc(CC(=O)Nc2ccn(CCC(F)Cn3cc(C(=O)NCc4cccc(OC(F)(F)F)c4)nn3)c(=O)c2)c1` (stereo not drawn) [Example 222, tert-butyl N-[(3-{[(1-{3-fluoro-4-[4-({[3-(trifluoro-methoxy)phenyl]methyl}carbamoyl)-1H-1,2,3-triazol-1-yl]butyl}-2-oxo-1,2-dihydropyridin-4-yl)carbamoyl]methyl}phenyl)methyl] carbamate], the concentration for half-maximal inhibition (IC50) in assay [1] was under 0.1 µM. In the assay with A549 cells, this compound showed a concentration for a half-maximal effect (EC50) of 0.1 to 0.5 µM.

`Cc1ccc(CNC(=O)c2cn(CC(F)CCn3ccc(NC(=O)CC4CCCC4)c(F)c3=O)nn2)cn1` (stereo not drawn) [Example 303, 1-{4-[4-(2-cyclopentylacetamido)-3-fluoro-2-oxo-1,2-dihydropyridin-1-yl]-2-fluorobutyl}-N-[(6-methylpyridin-3-yl)methyl]-1H-1,2,3-triazole-4-carboxamide]: the IC50 in assay [1] was under 0.1 µM. This compound also gave an EC50 in the assay on A549 cells of under 0.1 µM.

As to `CC(C)NC(=O)Nc1ccn(CCCCc2ccc(NC(=O)Cc3ccccc3)nn2)c(=O)n1` [Example 87, N-{6-[4-(2-oxo-4-{[(propan-2-yl)carbamoyl]amino}-1,2-dihydropyrimidin-1-yl)butyl]pyridazin-3-yl}-2-phenylacetamide], the IC50 in assay [1] lay within 0.5 to 5 µM. The compound also yielded an EC50 in the assay on A549 cells of over 5 µM.

With `O=C(CN1CCCC1=O)Nc1ccn(CCCCn2cc(C(=O)NCc3cccc(C(F)(F)F)c3)nn2)c(=O)c1` [Example 155, 1-(4-{2-oxo-4-[2-(2-oxopyrrolidin-1-yl)acetamido]-1,2-dihydropyridin-1-yl}butyl)-N-{[3-(trifluoromethyl)phenyl]methyl}-1H-1,2,3-triazole-4-carboxamide], the IC50 in assay [1] is 0.1 to 0.5 µM. The EC50 in the assay on A549 cells is over 5 µM.

As for `O=C(NCc1ccc(C(F)(F)F)nc1)c1cn(CC(F)CCn2ccc(NC(=O)C(F)c3ccccc3)c(F)c2=O)nn1` (stereo not drawn) [Example 372, l-{2-fluoro-4-[3-fluoro-4-(2-fluoro-2-phenylacetamido)-2-oxo-1,2-dihydropyridin-1-yl]butyl}-N-{[6-(trifluoromethyl)pyridin-3-yl]methyl}-1H-1,2,3-triazole-4-carboxamide], the IC50 in assay [1] was under 0.1 µM. For the same compound, the EC50 in the assay with A549 cells was 0.1 to 0.5 µM.

On to `O=C(Cc1cccc(OC(F)(F)F)c1)Nc1ccn(CCCCn2cc(C(=O)NCc3cccnc3)nn2)c(=O)c1` [Example 69, 1-[4-(2-oxo-4-{2-[3-(trifluoromethoxy)phenyl]acetamido}-1,2-dihydropyridin-1-yl)butyl]-N-(pyridin-3-ylmethyl)-1H-1,2,3-triazole-4-carboxamide], for which the IC50 in assay [1] is under 0.1 µM. Also, the EC50 in the assay with A549 cells is 0.5 to 5 µM.

On to `Cc1ccc(CNC(=O)c2cn(CC(F)CCn3ccc(NC(=O)C(=O)N4CCCC4)c(F)c3=O)nn2)cn1` (stereo not drawn) [Example 411, 1-(2-fluoro-4-{3-fluoro-2-oxo-4-[2-oxo-2-(pyrrolidin-1-yl)acetamido]-1,2-dihydropyridin-1-yl}butyl)-N-[(6-methylpyridin-3-yl)methyl]-1H-1,2,3-triazole-4-carboxamide], for which, in assay [1], the IC50 lay in the range of 0.5 to 5 µM. The compound further had a 50% effective concentration (EC50) with A549 cells of 0.5 to 5 µM.

With `O=C(Cc1ccccc1)Nc1ccn(CC(F)CCn2cc(C(=O)NCc3cc(Br)ccn3)nn2)c(=O)c1` (stereo not drawn) [Example 160, N-[(4-bromopyridin-2-yl)methyl]-1-{3-fluoro-4-[2-oxo-4-(2-phenylacetamido)-1,2-dihydropyridin-1-yl]butyl}-1H-1,2,3-triazole-4-carboxamide], in assay [1], the IC50 was under 0.1 µM. In the assay on A549 cells, this compound had an EC50 of 0.5 to 5 µM.

In the case of `O=C(Nc1ccn(CCC(F)Cn2cc(C(=O)NCc3cc(OC(F)(F)F)ccc3F)nn2)c(=O)c1F)C(=O)N1CCC[C@H](C(F)(F)F)C1` (mixture of isomers) [Example 435], the half-inhibitory concentration (IC50) in assay [1] was under 0.1 µM. Moreover, the EC50 with A549 cells is under 0.1 µM.

On to `O=C(CN1CCCC(F)C1)Nc1ccn(CC(F)CCn2cc(C(=O)NCc3cccc(OC(F)(F)F)c3)nn2)c(=O)c1` (stereo not drawn) [Example 283, 1-(3-fluoro-4-{4-[2-(3-fluoropiperidin-1-yl)acetamido]-2-oxo-1,2-dihydropyridin-1-yl}butyl)-N-{[3-(trifluoromethoxy)phenyl]methyl}-1H-1,2,3-triazole-4-carboxamide], for which the IC50 in assay [1] is under 0.1 µM. The compound also returned an EC50 in the assay with A549 cells of under 0.1 µM.

For `CC(C)(C)OC(=O)N[C@H]1CC[C@H](CC(=O)Nc2ccn(CCC(F)Cn3cc(C(=O)NCc4cccc(OC(F)(F)F)c4)nn3)c(=O)c2)CC1` (stereo partly drawn) [Example 239, tert-butyl N-[(1r,4r)-4-{[(1-{3-fluoro-4-[4-({[3-(trifluoromethoxy)phenyl]methyl}carbamoyl)-1H-1,2,3-triazol-1-yl]butyl}-2-oxo-1,2-dihydropyridin-4-yl)carbamoyl]methyl}cyclo-hexyl]carbamate], the IC50 in assay [1] is under 0.1 µM. Further, the 50% effective concentration (EC50) in the assay on A549 cells is under 0.1 µM.

`O=C(Nc1ccn(CCC(F)Cn2cc(C(=O)NCc3cccc(OC(F)(F)F)c3)nn2)c(=O)c1F)C(=O)N1CCCCC1` (stereo not drawn) [Example 358, 1-(2-fluoro-4-(3-fluoro-2-oxo-4-(2-oxo-2-(piperidin-1-yl)acetamido)pyridin-1(2H)-yl)butyl)-N-(3-(trifluoromethoxy)benzyl)-1H-1,2,3-triazole-4-carboxamide]: the IC50 in assay [1] is under 0.1 µM. In the assay on A549 cells, this compound came in with an EC50 of under 0.1 µM.
